The data set is described as follows: Surface tensiometer characterization: critical micelle concentration and surface tension. The class given is physicochemical. The following applies: surface tensiometer; FIG. 2. An excerpt: Dibenzhydryl resorcinol ethoxylates produced in Example 2 were characterized using a surface tensiometer to determine critical micelle concentration and surface tension.

Consider one substance from patent US20220017444A1, “BENZ[…] SURFACTANTS” (INDORAMA VENTURES OXIDES LLC, priority 2018, published 2022).

As to Dibenzhydryl Resorcinol Ethoxylate, the critical micelle concentration is on record as 4 ppm.
